For one molecule, morphological changes results are on record in US20070244190A1, “Neobritannilactone B and acetyl neobritannilactone B” (priority 2006, published 2007).

The test system of the experiment is AGS cells. In words: Morphological changes by light microscopy. It is filed as cell-based, human. The settings on record: 10 μM, within 24 h, FIG. 5. An excerpt: FIG. 5 provides light microscopic images showing the morphological changes of AGS cells, including the induction of apoptotic bodies from AGS cells, induced by NAB and ANAB.
Physiological cell death is characterized by apoptotic morphology, including chromatin condensation, membrane blebbing, internucleosome degradation of DNA, and apoptotic body formation. Nucleosomal DNA ladders visible on agarose gel after staining with ethidium bromide are typical of apoptotic cell samples. To investigate whether the cytotoxic effects of NAB and ANAB observed in AGS cells were due to the presence of apoptotic cell death, cells were treated with […] (0-25 μM) for 24 h and DNA fragmentation analyses were performed. […] FIG. 5.

With `C=C1C(=O)O[C@H]2/C=C(\C)CC/C=C(\C)C[C@H](OC(C)=O)[C@@H]12` [Compound 4, acetyl neobritannilactone B], the morphological changes entry was “significant morphological changes and chromosomal condensation”.
